{
  "source": "PubChem BioAssay AID1963981",
  "about": "(Molecular Pharmacology Branch, DTP, NCI, 2024);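 further: spheroids exposed to agents for seven days before the viability read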",
  "tested_on": "354836-022-R-J1-PDC multicell spheroid viability",
  "assay": "Anticancer human tumor 354836-022-R-J1-PDC patient-derived head and neck squamous cell carcinoma cell line growth inhibition [PI3K]",
  "conditions": "for IC50: curve of first compound; for viability, T/C: stronger effect = lower value",
  "summary_of_the_method": "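Targeted small molecules plus PI3K inhibitors, half-log dose series from Cmax (default top 10 microM), were applied to heterotypic spheroids of cancer cells with HUVEC and MSCs. Viability indicated growth inhibition.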",
  "key": {"[1]": {"conditions": "second compound 0.00316 µM, first compound 0.0316 µM"}, "[2]": {"conditions": "second compound 0.00316 µM, first compound 0.1 µM"}, "[3]": {"conditions": "second compound 0.00316 µM, first compound 0.316 µM"}, "[4]": {"conditions": "second compound 0.00316 µM, first compound 1 µM"}, "[5]": {"conditions": "second compound 0.01 µM, first compound 0.0316 µM"}, "[6]": {"conditions": "second compound 0.01 µM, first compound 0.1 µM"}, "[7]": {"conditions": "second compound 0.01 µM, first compound 0.316 µM"}, "[8]": {"conditions": "second compound 0.01 µM, first compound 1 µM"}, "[9]": {"conditions": "second compound 0.0316 µM, first compound 0.0316 µM"}, "[10]": {"conditions": "second compound 0.0316 µM, first compound 0.1 µM"}, "[11]": {"conditions": "second compound 0.0316 µM, first compound 0.316 µM"}, "[12]": {"conditions": "second compound 0.0316 µM, first compound 1 µM"}, "[13]": {"conditions": "second compound 0.1 µM, first compound 0.0316 µM"}, "[14]": {"conditions": "second compound 0.1 µM, first compound 0.1 µM"}, "[15]": {"conditions": "second compound 0.1 µM, first compound 0.316 µM"}, "[16]": {"conditions": "second compound 0.1 µM, first compound 1 µM"}, "[17]": {"conditions": "second compound 0.316 µM, first compound 0.0316 µM"}, "[18]": {"conditions": "second compound 0.316 µM, first compound 0.1 µM"}, "[19]": {"conditions": "second compound 0.316 µM, first compound 0.316 µM"}, "[20]": {"conditions": "second compound 0.316 µM, first compound 1 µM"}, "[21]": {"conditions": "second compound 1 µM, first compound 0.0316 µM"}, "[22]": {"conditions": "second compound 1 µM, first compound 0.1 µM"}, "[23]": {"conditions": "second compound 1 µM, first compound 0.316 µM"}, "[24]": {"conditions": "second compound 1 µM, first compound 1 µM"}},
  "data": [
    {"smiles": "CC(C)NCC(C(=O)N1CCN(c2ncnc3c2C(C)CC3O)CC1)c1ccc(Cl)cc1", "note": "(centres undefined) + COc1c(OCCCN2CCOCC2)ccc2c3n(c(=NC(=O)c4cnc(N)nc4)nc12)CCN3", "values": [
      {"measurement": "IC50", "setting": "second compound 0.00316 µM", "value": 305, "unit": "nM"},
      {"measurement": "IC50", "setting": "second compound 0.01 µM", "value": 227, "unit": "nM"},
      {"measurement": "IC50", "setting": "second compound 0.0316 µM", "value": 119, "unit": "nM"},
      {"measurement": "IC50", "setting": "second compound 0.1 µM", "value": "< 31.6", "unit": "nM"},
      {"measurement": "IC50", "setting": "second compound 0.316 µM", "value": "< 31.6", "unit": "nM"},
      {"measurement": "IC50", "setting": "second compound 1 µM", "value": "< 31.6", "unit": "nM"},
      {"measurement": "viability, T/C", "setting": "[1]", "value": 90.8, "unit": "%"},
      {"measurement": "viability, T/C", "setting": "[2]", "value": 68.1, "unit": "%"},
      {"measurement": "viability, T/C", "setting": "[3]", "value": 52.3, "unit": "%"},
      {"measurement": "viability, T/C", "setting": "[4]", "value": 28.5, "unit": "%"},
      {"measurement": "viability, T/C", "setting": "second compound 0.00316 µM, first compound 3.16 µM", "value": 9.34, "unit": "%"},
      {"measurement": "viability, T/C", "setting": "second compound 0.00316 µM, first compound 10 µM", "value": 2.4, "unit": "%"},
      {"measurement": "viability, T/C", "setting": "[5]", "value": 87.6, "unit": "%"},
      {"measurement": "viability, T/C", "setting": "[6]", "value": 66.5, "unit": "%"},
      {"measurement": "viability, T/C", "setting": "[7]", "value": 42.9, "unit": "%"},
      {"measurement": "viability, T/C", "setting": "[8]", "value": 24.8, "unit": "%"},
      {"measurement": "viability, T/C", "setting": "second compound 0.01 µM, first compound 3.16 µM", "value": 9.85, "unit": "%"},
      {"measurement": "viability, T/C", "setting": "second compound 0.01 µM, first compound 10 µM", "value": 2.96, "unit": "%"},
      {"measurement": "viability, T/C", "setting": "[9]", "value": 68.8, "unit": "%"},
      {"measurement": "viability, T/C", "setting": "[10]", "value": 52.7, "unit": "%"},
      {"measurement": "viability, T/C", "setting": "[11]", "value": 34.5, "unit": "%"},
      {"measurement": "viability, T/C", "setting": "[12]", "value": 19.4, "unit": "%"},
      {"measurement": "viability, T/C", "setting": "second compound 0.0316 µM, first compound 3.16 µM", "value": 7.83, "unit": "%"},
      {"measurement": "viability, T/C", "setting": "second compound 0.0316 µM, first compound 10 µM", "value": 2.13, "unit": "%"},
      {"measurement": "viability, T/C", "setting": "[13]", "value": 43, "unit": "%"},
      {"measurement": "viability, T/C", "setting": "[14]", "value": 39.6, "unit": "%"},
      {"measurement": "viability, T/C", "setting": "[15]", "value": 26.3, "unit": "%"},
      {"measurement": "viability, T/C", "setting": "[16]", "value": 13.3, "unit": "%"},
      {"measurement": "viability, T/C", "setting": "second compound 0.1 µM, first compound 3.16 µM", "value": 3.65, "unit": "%"},
      {"measurement": "viability, T/C", "setting": "second compound 0.1 µM, first compound 10 µM", "value": 1.29, "unit": "%"},
      {"measurement": "viability, T/C", "setting": "[17]", "value": 11.6, "unit": "%"},
      {"measurement": "viability, T/C", "setting": "[18]", "value": 11.2, "unit": "%"},
      {"measurement": "viability, T/C", "setting": "[19]", "value": 5.73, "unit": "%"},
      {"measurement": "viability, T/C", "setting": "[20]", "value": 3.46, "unit": "%"},
      {"measurement": "viability, T/C", "setting": "second compound 0.316 µM, first compound 3.16 µM", "value": 1.76, "unit": "%"},
      {"measurement": "viability, T/C", "setting": "second compound 0.316 µM, first compound 10 µM", "value": 0.91, "unit": "%"},
      {"measurement": "viability, T/C", "setting": "[21]", "value": 1.35, "unit": "%"},
      {"measurement": "viability, T/C", "setting": "[22]", "value": 1.54, "unit": "%"},
      {"measurement": "viability, T/C", "setting": "[23]", "value": 1.33, "unit": "%"},
      {"measurement": "viability, T/C", "setting": "[24]", "value": 1.12, "unit": "%"},
      {"measurement": "viability, T/C", "setting": "second compound 1 µM, first compound 3.16 µM", "value": 1.14, "unit": "%"},
      {"measurement": "viability, T/C", "setting": "second compound 1 µM, first compound 10 µM", "value": 0.88, "unit": "%"}
    ]},
    {"smiles": "CCN1CCN(Cc2ccc(Nc3ncc(F)c(-c4cc(F)c5nc(C)n(C(C)C)c5c4)n3)nc2)CC1", "note": "+ COc1c(OCCCN2CCOCC2)ccc2c3n(c(=NC(=O)c4cnc(N)nc4)nc12)CCN3", "values": [
      {"measurement": "IC50", "setting": "second compound 0.00316 µM", "value": 656, "unit": "nM"},
      {"measurement": "IC50", "setting": "second compound 0.01 µM", "value": 642, "unit": "nM"},
      {"measurement": "IC50", "setting": "second compound 0.0316 µM", "value": 342, "unit": "nM"},
      {"measurement": "IC50", "setting": "second compound 0.1 µM", "value": "< 3.16", "unit": "nM"},
      {"measurement": "IC50", "setting": "second compound 0.316 µM", "value": "< 3.16", "unit": "nM"},
      {"measurement": "IC50", "setting": "second compound 1 µM", "value": "< 3.16", "unit": "nM"},
      {"measurement": "viability, T/C", "setting": "second compound 0.00316 µM, first compound 0.00316 µM", "value": 97.2, "unit": "%"},
      {"measurement": "viability, T/C", "setting": "second compound 0.00316 µM, first compound 0.01 µM", "value": 86.5, "unit": "%"},
      {"measurement": "viability, T/C", "setting": "[1]", "value": 98.3, "unit": "%"},
      {"measurement": "viability, T/C", "setting": "[2]", "value": 99.3, "unit": "%"},
      {"measurement": "viability, T/C", "setting": "[3]", "value": 71.5, "unit": "%"},
      {"measurement": "viability, T/C", "setting": "[4]", "value": 37.6, "unit": "%"},
      {"measurement": "viability, T/C", "setting": "second compound 0.01 µM, first compound 0.00316 µM", "value": 98, "unit": "%"},
      {"measurement": "viability, T/C", "setting": "second compound 0.01 µM, first compound 0.01 µM", "value": 101, "unit": "%"},
      {"measurement": "viability, T/C", "setting": "[5]", "value": 96, "unit": "%"},
      {"measurement": "viability, T/C", "setting": "[6]", "value": 81.1, "unit": "%"},
      {"measurement": "viability, T/C", "setting": "[7]", "value": 83.5, "unit": "%"},
      {"measurement": "viability, T/C", "setting": "[8]", "value": 31.7, "unit": "%"},
      {"measurement": "viability, T/C", "setting": "second compound 0.0316 µM, first compound 0.00316 µM", "value": 78.5, "unit": "%"},
      {"measurement": "viability, T/C", "setting": "second compound 0.0316 µM, first compound 0.01 µM", "value": 74.4, "unit": "%"},
      {"measurement": "viability, T/C", "setting": "[9]", "value": 72.6, "unit": "%"},
      {"measurement": "viability, T/C", "setting": "[10]", "value": 65.2, "unit": "%"},
      {"measurement": "viability, T/C", "setting": "[11]", "value": 53.5, "unit": "%"},
      {"measurement": "viability, T/C", "setting": "[12]", "value": 20.9, "unit": "%"},
      {"measurement": "viability, T/C", "setting": "second compound 0.1 µM, first compound 0.00316 µM", "value": 46.6, "unit": "%"},
      {"measurement": "viability, T/C", "setting": "second compound 0.1 µM, first compound 0.01 µM", "value": 41.8, "unit": "%"},
      {"measurement": "viability, T/C", "setting": "[13]", "value": 46.5, "unit": "%"},
      {"measurement": "viability, T/C", "setting": "[14]", "value": 36.6, "unit": "%"},
      {"measurement": "viability, T/C", "setting": "[15]", "value": 30.4, "unit": "%"},
      {"measurement": "viability, T/C", "setting": "[16]", "value": 6.41, "unit": "%"},
      {"measurement": "viability, T/C", "setting": "second compound 0.316 µM, first compound 0.00316 µM", "value": 11.8, "unit": "%"},
      {"measurement": "viability, T/C", "setting": "second compound 0.316 µM, first compound 0.01 µM", "value": 10.4, "unit": "%"},
      {"measurement": "viability, T/C", "setting": "[17]", "value": 12.9, "unit": "%"},
      {"measurement": "viability, T/C", "setting": "[18]", "value": 8.98, "unit": "%"},
      {"measurement": "viability, T/C", "setting": "[19]", "value": 5.99, "unit": "%"},
      {"measurement": "viability, T/C", "setting": "[20]", "value": 2.69, "unit": "%"},
      {"measurement": "viability, T/C", "setting": "second compound 1 µM, first compound 0.00316 µM", "value": 1.43, "unit": "%"},
      {"measurement": "viability, T/C", "setting": "second compound 1 µM, first compound 0.01 µM", "value": 1.38, "unit": "%"},
      {"measurement": "viability, T/C", "setting": "[21]", "value": 1.41, "unit": "%"},
      {"measurement": "viability, T/C", "setting": "[22]", "value": 1.78, "unit": "%"},
      {"measurement": "viability, T/C", "setting": "[23]", "value": 1.38, "unit": "%"},
      {"measurement": "viability, T/C", "setting": "[24]", "value": 1.22, "unit": "%"}
    ]}
  ]
}
